In patent publication US20090042818A1, “Liquiritigenin and Derivatives as Selective Estrogen Receptor Beta Agonists” (BIONOVO, INC., priority 2007, published 2009):
Entries after “also recorded” stand apart in the source; their conditions may differ. Blank lines part the entries; values can stand above or below the compound they belong to.

Legend:
[1] = system: MCF-7 breast cancer cells; assay: MCF-7 xenograft under kidney capsule of nude mice, tumor growth; format: in vivo; settings: 30 days; for tumor growth of MCF-7 grafts: subcutaneous osmotic pump, E2 0.4 mg, liquiritigenin 2 mg
Description: (§1) MCF-7 (250,000) cells were aggregated in suspension and then resuspended in 200 μL neutralized collagen, as previously described (Parmar et al., Endocrinology 143:4886-4896 (2002). The cells were then grafted under the kidney capsule of nude mice as described and illustrated in detail at: http://mammary.nih.gov/tools/mousework/Cunha001/index.html. Five mice per group were treated with a continuous infusion using osmotic pumps (Alzet, Cupertino, Calif.) containing vehicle, E2 (0.4 mg) or liquiritigenin (2 mg) that infused 2.5 μl/h for 1 month. After one month of treatment, the tumors and uteri were removed and analyzed. These animal studies were carried out with approval from the University of California, San Francisco Committee on Animal Research. The major concern with estrogens for menopausal symptoms is the proliferation of breast and endometrial cells causing an increased risk for breast and uterine cancer. To determine if liquiritigenin has a proliferative effect on breast cancer and endometrial cells, MCF-7 breast cancer cells were grafted under the kidney capsule of nude mice. Using a subcutaneous osmotic pump designed to deliver a steady dose of drug, the mice were treated for 30 days with vehicle, E2, or liquiritigenin.

uterus = assay: MCF-7 xenograft study in nude mice, uterine horn mass; format: in vivo; settings: osmotic pump, 30 days, E2 0.4 mg, liquiritigenin 2 mg
Description: as §1

ERα [2] = target: T1, ERα (Homo sapiens, UniProt P03372); assay: Real-time PCR of native target gene mRNA in U2OS-ERα cells; format: cell-based; parameters: expressed in transfected cells; settings: 1 μM
T1 sequence (P03372 1-595): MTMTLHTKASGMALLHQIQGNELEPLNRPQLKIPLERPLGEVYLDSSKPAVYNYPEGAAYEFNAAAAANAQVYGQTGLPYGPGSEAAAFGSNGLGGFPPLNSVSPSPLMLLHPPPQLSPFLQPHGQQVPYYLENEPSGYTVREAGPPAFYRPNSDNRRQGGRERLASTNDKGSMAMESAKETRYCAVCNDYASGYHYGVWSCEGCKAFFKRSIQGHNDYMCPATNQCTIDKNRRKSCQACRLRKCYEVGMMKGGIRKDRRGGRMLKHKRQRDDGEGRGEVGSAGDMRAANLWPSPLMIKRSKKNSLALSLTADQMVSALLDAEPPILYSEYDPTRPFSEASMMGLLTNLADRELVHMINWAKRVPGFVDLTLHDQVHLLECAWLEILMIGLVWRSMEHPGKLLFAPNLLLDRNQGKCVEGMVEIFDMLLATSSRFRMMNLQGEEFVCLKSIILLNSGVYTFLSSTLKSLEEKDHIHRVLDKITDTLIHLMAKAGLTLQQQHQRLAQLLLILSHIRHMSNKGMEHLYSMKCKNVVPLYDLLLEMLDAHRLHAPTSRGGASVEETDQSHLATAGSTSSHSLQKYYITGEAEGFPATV

ERα [3] = target: T1, ERα; assay: Native ER regulatory element (CECR6, NKG2E, NKD) tk-Luc transfection assay with ERα; format: cell-based; parameters: expressed in transfected cells; host or cells: U2OS
Excerpt: In addition to the traditional ERE, it is important to determine if liquiritigenin selectivity activates ERβ in elements derived from native ER target genes. ER regulatory elements from the cat eye syndrome chromosome region candidate 6 (CECR6), killer cell lectin-like receptor (NKG2E) and the naked cuticule homolog (NKD) genes that are activated by E2 Levy et al., Endocrinology doi:10.1210/en.2006-1632 (2007)) were used. CECR6-tk-Luc (A), NKG2E-tk-Luc (B), and NKD-tk-Luc (C) were transfected into U2OS cells with expression vectors for human ERα or ERβ. […] Liquiritigenin produced a dose-dependent activation of CECR6, NKG2E, and NKD with ERβ but not with ERα (FIGS. 4A, 4B, 4C, respectively). The cells were then treated for increasing times with liquiritigenin.

androgen receptor (AR) = target: T2, androgen receptor (AR) (Homo sapiens, UniProt P10275); assay: TAT3-luciferase transfection assay with androgen receptor in U2OS cells; settings: 2.5 μM, 18 h
T2 sequence (P10275 1-920): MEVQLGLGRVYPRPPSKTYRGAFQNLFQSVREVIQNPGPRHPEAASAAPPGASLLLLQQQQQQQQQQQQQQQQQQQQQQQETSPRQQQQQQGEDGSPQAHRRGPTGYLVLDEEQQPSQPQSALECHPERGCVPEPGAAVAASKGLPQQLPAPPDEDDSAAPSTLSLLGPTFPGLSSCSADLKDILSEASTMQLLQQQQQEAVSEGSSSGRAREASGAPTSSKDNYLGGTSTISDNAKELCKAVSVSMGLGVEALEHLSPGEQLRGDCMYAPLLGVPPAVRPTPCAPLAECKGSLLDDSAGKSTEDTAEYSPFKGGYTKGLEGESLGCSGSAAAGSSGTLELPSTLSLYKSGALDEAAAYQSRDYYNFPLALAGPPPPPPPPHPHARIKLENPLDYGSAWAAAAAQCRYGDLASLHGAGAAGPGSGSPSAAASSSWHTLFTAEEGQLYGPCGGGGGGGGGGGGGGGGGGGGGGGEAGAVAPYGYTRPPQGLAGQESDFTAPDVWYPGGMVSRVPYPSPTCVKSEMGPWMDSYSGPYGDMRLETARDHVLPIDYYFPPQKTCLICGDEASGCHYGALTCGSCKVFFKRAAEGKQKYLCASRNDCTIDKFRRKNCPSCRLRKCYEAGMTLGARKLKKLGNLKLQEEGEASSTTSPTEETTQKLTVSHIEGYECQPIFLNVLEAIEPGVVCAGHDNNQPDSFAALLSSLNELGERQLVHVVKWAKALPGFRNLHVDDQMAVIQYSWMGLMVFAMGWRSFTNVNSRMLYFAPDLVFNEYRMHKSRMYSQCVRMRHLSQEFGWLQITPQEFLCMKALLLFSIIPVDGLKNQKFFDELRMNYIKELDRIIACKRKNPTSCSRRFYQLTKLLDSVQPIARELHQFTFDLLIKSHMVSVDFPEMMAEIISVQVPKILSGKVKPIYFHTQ

[4] = target: T3, thyroid hormone receptor β1 (TR) (Homo sapiens, UniProt P10828); assay: F2-tkLuc transfection assay with thyroid hormone receptor β1 in U2OS cells; settings: 2.5 μM, 18 h
T3 sequence (P10828 1-461): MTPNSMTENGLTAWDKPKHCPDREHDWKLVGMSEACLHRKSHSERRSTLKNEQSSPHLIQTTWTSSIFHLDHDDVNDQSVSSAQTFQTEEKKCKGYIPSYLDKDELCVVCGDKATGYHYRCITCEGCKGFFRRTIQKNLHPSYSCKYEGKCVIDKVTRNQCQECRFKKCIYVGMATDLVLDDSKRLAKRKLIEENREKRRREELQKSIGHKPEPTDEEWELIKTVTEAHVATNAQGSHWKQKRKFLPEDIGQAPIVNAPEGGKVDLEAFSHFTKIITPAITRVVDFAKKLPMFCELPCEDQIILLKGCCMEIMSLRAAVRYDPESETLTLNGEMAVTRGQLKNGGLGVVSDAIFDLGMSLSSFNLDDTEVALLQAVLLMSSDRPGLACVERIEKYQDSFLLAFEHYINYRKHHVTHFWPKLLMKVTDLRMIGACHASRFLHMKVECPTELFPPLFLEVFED

[5] = target: T4, glucocorticoid receptor (GR) (Homo sapiens, UniProt P04150); assay: MMTV-luciferase transfection assay with glucocorticoid receptor in U2OS cells; settings: 2.5 μM, 18 h
T4 sequence (P04150 1-777): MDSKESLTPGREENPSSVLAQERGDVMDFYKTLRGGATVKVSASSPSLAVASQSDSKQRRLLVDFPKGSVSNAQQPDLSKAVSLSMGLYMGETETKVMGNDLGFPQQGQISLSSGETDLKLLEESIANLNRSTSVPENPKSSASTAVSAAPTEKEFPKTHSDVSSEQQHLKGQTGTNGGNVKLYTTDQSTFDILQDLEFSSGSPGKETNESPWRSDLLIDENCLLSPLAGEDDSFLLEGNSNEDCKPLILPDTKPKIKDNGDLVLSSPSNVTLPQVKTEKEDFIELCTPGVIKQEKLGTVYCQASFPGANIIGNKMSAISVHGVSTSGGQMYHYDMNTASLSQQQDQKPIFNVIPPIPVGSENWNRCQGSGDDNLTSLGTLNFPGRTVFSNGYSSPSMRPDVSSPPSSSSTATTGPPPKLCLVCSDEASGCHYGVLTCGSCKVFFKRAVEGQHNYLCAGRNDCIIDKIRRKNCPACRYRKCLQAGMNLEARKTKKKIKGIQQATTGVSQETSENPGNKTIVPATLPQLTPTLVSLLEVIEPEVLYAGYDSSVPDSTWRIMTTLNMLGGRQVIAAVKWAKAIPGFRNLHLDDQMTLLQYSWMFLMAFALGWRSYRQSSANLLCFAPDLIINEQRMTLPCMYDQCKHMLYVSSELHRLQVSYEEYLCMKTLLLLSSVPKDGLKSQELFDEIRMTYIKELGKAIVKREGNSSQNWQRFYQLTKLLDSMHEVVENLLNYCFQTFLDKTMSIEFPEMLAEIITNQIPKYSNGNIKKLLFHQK

[6] = target: T5, progesterone receptor B (PR) (Homo sapiens, UniProt P06401); assay: TAT3-luciferase transfection assay with progesterone receptor B in U2OS cells; settings: 2.5 μM, 18 h
T5 sequence (P06401 1-933): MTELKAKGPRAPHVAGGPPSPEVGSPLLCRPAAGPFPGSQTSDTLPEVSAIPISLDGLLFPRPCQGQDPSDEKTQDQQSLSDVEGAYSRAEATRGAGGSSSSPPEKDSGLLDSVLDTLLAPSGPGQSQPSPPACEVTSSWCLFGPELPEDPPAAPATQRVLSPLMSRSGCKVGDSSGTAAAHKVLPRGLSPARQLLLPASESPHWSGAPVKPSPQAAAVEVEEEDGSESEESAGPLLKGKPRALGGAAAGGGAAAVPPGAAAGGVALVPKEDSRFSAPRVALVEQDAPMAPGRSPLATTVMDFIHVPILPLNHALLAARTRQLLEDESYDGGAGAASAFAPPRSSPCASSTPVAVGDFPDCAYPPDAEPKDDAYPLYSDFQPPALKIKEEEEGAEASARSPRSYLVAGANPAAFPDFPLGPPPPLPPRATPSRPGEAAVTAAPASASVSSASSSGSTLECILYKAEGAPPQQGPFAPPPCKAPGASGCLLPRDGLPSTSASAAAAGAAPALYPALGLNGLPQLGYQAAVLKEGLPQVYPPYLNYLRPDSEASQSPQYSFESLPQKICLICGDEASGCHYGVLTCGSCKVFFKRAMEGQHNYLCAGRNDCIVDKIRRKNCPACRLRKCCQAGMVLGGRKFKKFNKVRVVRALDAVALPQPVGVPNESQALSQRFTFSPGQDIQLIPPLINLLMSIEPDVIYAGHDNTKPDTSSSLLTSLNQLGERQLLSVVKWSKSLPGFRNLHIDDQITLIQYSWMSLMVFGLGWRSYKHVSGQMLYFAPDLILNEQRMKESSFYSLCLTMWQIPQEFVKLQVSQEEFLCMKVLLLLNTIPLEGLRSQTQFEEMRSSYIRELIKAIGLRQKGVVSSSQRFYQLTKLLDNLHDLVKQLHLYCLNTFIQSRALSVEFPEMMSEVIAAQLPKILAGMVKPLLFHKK

ERα and ERβ = settings: cited from earlier work
[7] = system: mammary and uterine tissue; settings: rat, in vivo; cited from earlier work
[8] = U2OS cells, 18 h, increasing amounts

uterine horn mass (uterus): did not increase uterine horn mass
uterine horn mass (uterus; listed as liquirtigenin): does not increase the size of the uterus
activation of endogenous genes in U2OS-ERα cells (ERα [2]): does not activate
activation of multiple ER regulatory elements (ERα [3]; 1 μM, ERα): does not activate
activation of CECR6-tk-Luc with ERα (ERα [3]; [8]): not with ERα
activation of NKD-tk-Luc with ERα (ERα [3]; [8]): not with ERα
activation of androgen receptor (luciferase) (androgen receptor (AR)): did not activate
activation of thyroid hormone receptor (luciferase) [4]: did not activate
activation of glucocorticoid receptor (luciferase) [5]: did not activate
activation of progesterone receptor B (luciferase) [6]: did not activate
Compound: O=C1C[C@@H](c2ccc(O)cc2)Oc2cc(O)ccc21 [liquiritigenin, (2S)-7-hydroxy-2-(4-hydroxyphenyl)-2,3-dihydro-4H-1-benzopyran-4-one]
weight of the tumors compared to the control mice ([1]; osmotic pump, 2 mg): no differences in the weight of the tumors
tumor growth of MCF-7 grafts [1]: essentially no tumor growth; also recorded: does not stimulate breast cancer tumor formation

Compound: C[C@]12CC[C@@H]3c4ccc(O)cc4CC[C@H]3[C@@H]1CC[C@@H]2O [E2, 17β-Estra-1,3,5(10)-triene-3,17-diol, reference compound]
tumor growth of MCF-7 grafts [1]: Large tumors developed; also recorded: causes the formation of large tumors
binding affinity to ERβ compared to ERα (ERα and ERβ): equal affinity

Compound: O=c1c(-c2ccc(O)cc2)coc2cc(O)cc(O)c12 [genistein]
binding affinity to ERβ compared to ERα (ERα and ERβ): higher affinity; also recorded: binds better to ERβ than ERα

Compound: C=Cc1cc(O)cc2nc(-c3ccc(O)c(F)c3)oc12 [ERβ-041]
proliferative effects on mammary and uterine tissue [7]: does not elicit any proliferative effects
